Here are results for 14 compounds from US20210255193A1, “LYSINE REACTIVE PROBES AND USES THEREOF” (The Scripps Research Institute, priority 2017, published 2021).

For the assay, the target named is T1, NT5DC1 5-nucleotidase domain-containing protein 1 (Homo sapiens, UniProt Q5TFE4).
T1 construct: isoTOP-ABPP experiments performed in cell lysates (in vitro); endogenous in cells; host or cells: soluble proteome of human cancer cell lines (MDA-MB-231; Ramos and Jurkat also prepared)
T1 sequence (Q5TFE4 1-455): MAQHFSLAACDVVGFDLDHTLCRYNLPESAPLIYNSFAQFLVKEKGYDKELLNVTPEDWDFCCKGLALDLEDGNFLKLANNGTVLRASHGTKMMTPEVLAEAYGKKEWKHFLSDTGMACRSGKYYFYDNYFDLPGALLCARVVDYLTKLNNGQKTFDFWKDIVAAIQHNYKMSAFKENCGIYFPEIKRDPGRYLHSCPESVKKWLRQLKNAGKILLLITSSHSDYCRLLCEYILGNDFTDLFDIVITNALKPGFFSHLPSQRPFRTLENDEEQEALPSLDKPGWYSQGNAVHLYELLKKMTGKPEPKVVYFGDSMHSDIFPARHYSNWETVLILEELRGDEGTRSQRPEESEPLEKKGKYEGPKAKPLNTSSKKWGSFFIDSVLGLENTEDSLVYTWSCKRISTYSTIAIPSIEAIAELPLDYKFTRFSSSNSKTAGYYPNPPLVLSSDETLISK
The assay can be described thus: competitive isoTOP-ABPP. The class given is binding. The settings on record: for R value (DMSO/fragment) for probe 1 labeling: Q5TFE4_K123; for R value (DMSO/fragment) for probe 1 labeling / isoTOP-ABPP reactivity ratio at lysine Q5TFE4_K123 / isoTOP-ABPP ratio (R) at liganded lysine Q5TFE4_K123: 50 uM, in vitro; for R value (DMSO/fragment) for probe 1 labeling / isoTOP-ABPP reactivity ratio at lysine Q5TFE4_K123: 231 sol; for isoTOP-ABPP ratio (R) at liganded lysine Q5TFE4_K123: sol, 231. The essentials: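 Cell lysate treated in vitro with fragments (50 μM activated esters, 100 μM guanidinylating agents) or DMSO, labelled 1 h at ambient temperature with 0.1 mM STP-alkyne, CuAAC-tagged with light/heavy TEV tags, analysed by MS. R = DMSO/compound MS1 peak-area ratio; lysines with R≥4 called liganded.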

Consider `O=C(CCc1cn(-c2ccccc2)nc1-c1ccccc1)Oc1c(F)c(F)c(F)c(F)c1F` [fragment 19, Pentafluorophenyl 3-(1,3-diphenyl-1H-pyrazol-4-yl)propanoate], for which the “R value (DMSO/fragment) for probe 1 labeling” value (“R value (DMSO/fragment)” below) came to 20.0.

`O=C(Oc1c(F)c(F)c(F)c(F)c1F)C(c1ccccc1)c1ccccc1` [fragment 20, Pentafluorophenyl 2,2-diphenylacetate]: the “R value (DMSO/fragment)” value is listed as 1.0.

Turning to `O=C(Oc1c(F)c(F)c(F)c(F)c1F)c1cc(C(F)(F)F)cc(C(F)(F)F)c1` [fragment 21, Pentafluorophenyl 3,5-bis(trifluoromethyl)benzoate], the “R value (DMSO/fragment)” value was found to be 1.2.

Regarding `COc1cc(CCC(=O)Oc2c(F)c(F)c(F)c(F)c2F)cc(OC)c1OC` [fragment 23, Pentafluorophenyl 3-(3,4,5-trimethoxyphenyl)propanoate], the “R value (DMSO/fragment)” value turned out to be 1.5.

With `O=C(Oc1c(F)c(F)c(F)c(F)c1F)C1CCN(C(=O)OCc2ccccc2)CC1` [fragment 24, 1-Benzyl 4-(pentafluorophenyl) piperidine-1,4-dicarboxylate], the “isoTOP-ABPP reactivity ratio at lysine Q5TFE4_K123” value (shortened to “isoTOP-ABPP reactivity ratio”) is given as 1.1.

Take `CCn1cc(C(=O)Oc2c(F)c(F)c(F)c(F)c2F)c(=O)c2ccc(C)nc21` [fragment 28, Pentafluorophenyl 1-ethyl-7-methyl-4-oxo-1,4-dihydro-1,8-naphthyridine-3-carboxylate]: the “isoTOP-ABPP reactivity ratio” value came out at 1.2.

As to `O=C(CCc1cn(-c2ccccc2)nc1-c1ccccc1)Oc1ccc([N+](=O)[O-])cc1[N+](=O)[O-]` [fragment 29, 2,4-Dinitrophenyl 3-(1,3-diphenyl-1H-pyrazol-4-yl)propanoate], the “isoTOP-ABPP reactivity ratio” value is reported as 1.2.

As for `O=C(CCc1coc2cc(F)ccc2c1=O)Oc1ccc([N+](=O)[O-])cc1[N+](=O)[O-]` [fragment 36, 2,4-Dinitrophenyl 3-(7-fluoro-4-oxo-4H-chromen-3-yl)propanoate], the “isoTOP-ABPP ratio (R) at liganded lysine Q5TFE4_K123” value (from here on “isoTOP-ABPP ratio (R)”) stood at 20.0.

Consider `O=C(Oc1ccc([N+](=O)[O-])cc1[N+](=O)[O-])c1ccc(-c2ccccc2)cc1` [fragment 37, 2,4-Dinitrophenyl [1,1′-biphenyl]-4-carboxylate], for which the “isoTOP-ABPP ratio (R)” value is reported as 1.8.

Take `O=C(Oc1ccc([N+](=O)[O-])cc1[N+](=O)[O-])C(c1ccccc1)(c1ccccc1)c1ccccc1` [fragment 42, 2,4-Dinitrophenyl 2,2,2-triphenylacetate]: the “isoTOP-ABPP ratio (R)” value is recorded as 0.6.

Turning to `O=C(CCc1ccc2c(c1)OCO2)Oc1ccc([N+](=O)[O-])cc1[N+](=O)[O-]` [fragment 45, 2,4-Dinitrophenyl 3-(benzo[d][1,3]dioxol-5-yl)propanoate], the “isoTOP-ABPP ratio, lysine Q5TFE4_K123” value (50 uM_231_sol_in vitro) turned out to be 2.1.

With `O=C(ON1C(=O)CCC1=O)c1cc(C(F)(F)F)cc(C(F)(F)F)c1` [fragment 46, 3,5-Bis(trifluoromethyl)benzoic acid NHS ester], the “isoTOP-ABPP ratio, lysine Q5TFE4_K123” value (50 uM_231_sol_in vitro) is 20.0.

Regarding `COC(=O)NC(=NC(=O)OCC1c2ccccc2-c2ccccc21)n1cccn1` [fragment 49, N-Methoxycarbonyl-N′-9-fluorenylmethoxycarbonyl-pyrazole-1-carboxamidine], the “isoTOP-ABPP ratio, lysine Q5TFE4_K123” value (100 uM_231_sol_in vitro) is reported as 1.3.

Take `CC(C)(C)OC(=O)N=C(NC(=O)OC(C)(C)C)n1cccn1` [fragment 50, reference compound]: the “isoTOP-ABPP ratio, lysine Q5TFE4_K123” value (100 uM_231_sol_in vitro) amounted to 1.1.
